Results as given in US6274557A, “Inhibition of nitric oxide synthase by amino acids and dipeptides” (Northwestern University, priority 1999, dated 2001).
Values joined by “and” are separate entries in the source; they are usually repeats but may differ in a detail not shown here. Identical values can stand only once. Like-named read-outs stand apart in the source and are kept apart here. Peptide text beside a SMILES is read from it.

What was measured:
[1] = molecular target: T1, recombinant bovine endothelial nitric oxide synthase (eNOS) (Bos taurus, UniProt P29473); assay: Hemoglobin capture assay of nitric oxide formation, eNOS; assay type: biochemical; details: for selectivity of eNOS over iNOS: Table 2 dipeptides
T1 construct: made in house; host or cells: E. coli
Description: (§1) Nitric oxide formation was measured by using the hemoglobin capture assay. […] The production of nitric oxide by eNOS was measured as described. […] All assays were in a final volume of 600 μL and were initiated with enzyme.
(§2) The reversible inhibition of NOS by the dipeptide analogs was studied under initial rate conditions with the hemoglobin assay as described above. […] With various L-arginine and inhibitor concentrations.

[2] = molecular target: neuronal nitric oxide synthase (nNOS) from bovine brain (Bos taurus, UniProt A0A3Q1M6M2); assay: Hemoglobin capture assay of nitric oxide formation, nNOS; details: for nNOS/iNOS selectivity / nNOS/eNOS selectivity: Table 2 dipeptides; for nNOS/iNOS selectivity: in favor of nNOS over iNOS; for nNOS/eNOS selectivity: nNOS over eNOS; for time-dependent inhibition of any of the isoforms: nNOS, iNOS and eNOS; for most potent inhibitors (based on isoform inhibition data): dipeptide amides of Table 3
neuronal nitric oxide synthase (nNOS) from bovine brain, sequence (A0A3Q1M6M2 entry or part of it): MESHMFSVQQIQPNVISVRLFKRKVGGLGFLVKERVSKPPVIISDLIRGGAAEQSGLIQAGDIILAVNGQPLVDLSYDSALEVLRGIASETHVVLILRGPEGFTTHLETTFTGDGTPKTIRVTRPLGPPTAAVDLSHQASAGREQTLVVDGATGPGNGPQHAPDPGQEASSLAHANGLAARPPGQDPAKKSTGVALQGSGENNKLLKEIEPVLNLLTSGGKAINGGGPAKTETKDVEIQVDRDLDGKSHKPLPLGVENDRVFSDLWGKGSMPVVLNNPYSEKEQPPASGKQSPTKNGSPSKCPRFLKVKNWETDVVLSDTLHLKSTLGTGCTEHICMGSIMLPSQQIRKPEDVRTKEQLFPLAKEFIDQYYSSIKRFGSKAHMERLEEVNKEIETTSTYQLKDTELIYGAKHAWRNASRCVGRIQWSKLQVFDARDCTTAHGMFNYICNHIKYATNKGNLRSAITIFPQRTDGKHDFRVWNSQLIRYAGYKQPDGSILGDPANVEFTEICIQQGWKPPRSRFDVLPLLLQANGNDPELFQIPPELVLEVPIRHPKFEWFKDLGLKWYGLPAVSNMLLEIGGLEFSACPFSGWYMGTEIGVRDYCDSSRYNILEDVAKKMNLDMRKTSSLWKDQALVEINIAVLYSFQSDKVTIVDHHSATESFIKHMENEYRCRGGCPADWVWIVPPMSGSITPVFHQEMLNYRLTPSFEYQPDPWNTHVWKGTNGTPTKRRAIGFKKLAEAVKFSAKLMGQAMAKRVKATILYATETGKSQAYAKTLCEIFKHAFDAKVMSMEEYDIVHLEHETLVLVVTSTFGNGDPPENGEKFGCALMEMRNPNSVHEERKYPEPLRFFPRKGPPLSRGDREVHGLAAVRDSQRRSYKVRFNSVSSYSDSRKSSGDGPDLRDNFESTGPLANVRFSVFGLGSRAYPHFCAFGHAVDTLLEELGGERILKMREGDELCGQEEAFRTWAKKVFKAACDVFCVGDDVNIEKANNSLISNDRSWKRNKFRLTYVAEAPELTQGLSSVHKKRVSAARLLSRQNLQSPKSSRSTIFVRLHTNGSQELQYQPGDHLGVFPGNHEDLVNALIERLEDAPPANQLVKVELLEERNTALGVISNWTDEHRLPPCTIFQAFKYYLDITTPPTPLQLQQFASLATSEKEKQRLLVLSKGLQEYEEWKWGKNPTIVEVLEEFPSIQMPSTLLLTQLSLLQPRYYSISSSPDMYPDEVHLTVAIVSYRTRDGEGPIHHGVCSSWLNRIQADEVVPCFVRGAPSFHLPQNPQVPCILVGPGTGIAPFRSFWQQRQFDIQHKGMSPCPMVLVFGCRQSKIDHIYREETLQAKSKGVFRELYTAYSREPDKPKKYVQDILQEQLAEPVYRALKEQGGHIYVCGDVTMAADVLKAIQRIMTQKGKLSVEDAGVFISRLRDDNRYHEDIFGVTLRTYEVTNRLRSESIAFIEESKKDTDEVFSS
Description: as §1, §2

[3] = molecular target: recombinant murine macrophage nitric oxide synthase (iNOS) (Mus musculus, UniProt P29477); assay: Hemoglobin capture assay of nitric oxide formation, iNOS; details: for iNOS/eNOS selectivity: Table 2 dipeptides
Description: as §1, §2

[4] = tested on: nitric oxide synthases (nNOS, iNOS, eNOS); details: literature; cited from earlier work
[5] = read-out: Ki nNOS, Table 2, Dixon plots
[6] = read-out: Ki iNOS, Table 2, Dixon plots, ^a = uncompetitive inhibition

| Compound | Ki ([1]; Table 2, Dixon plots) [µM] | nNOS/iNOS selectivity [2] | nNOS/eNOS selectivity [2] | Ki [2, 5] [µM] | iNOS/eNOS selectivity [3] | Ki [3, 6] [µM] | other results |
| --- | --- | --- | --- | --- | --- | --- | --- |
| C=CCNC(=N)NCCC[C@H](N)C(=O)O [allyl, N^ω -allyl-L-arginine, reference compound] |  |  |  |  |  |  | Ki ([1]; Table 1): 3.1 µM; Ki [2]: 0.2 µM; Selectivity nNOS/eNOS [2]: 15 and 15.5; Ki [3]: 2.1 µM |
| N=C(NCCC[C@H](NC(=O)[C@@H](N)Cc1ccccc1)C(=O)OCc1ccccc1)N[N+](=O)[O-] [compound 6, L-Phe-L-Arg^NO2 -OBn] (HELM PEPTIDE1{F.[N=C(NCCC[C@H](N[*:1])C(=O)[*:2])N[N+](=O)[O-]].[c1ccc(CO[*:1])cc1]}$$$$V2.0) | 250 | 0.41 | 2.3 | 110 | 5.6 | 45 |  |
| N=C(NCCC[C@H](N)C(=O)N[C@@H](Cc1ccccc1)C(=O)OCc1ccccc1)N[N+](=O)[O-] [compound 5, L-Arg^NO2 -L-Phe-OBn] | 125 | 0.33 | 2.3 | 55 | 6.9 | 18 |  |
| N=C(NCCC[C@H](N)C(=O)N[C@@H](Cc1ccccc1)C(=O)O)N[N+](=O)[O-] [compound 1, L-Arg^NO2 L-Phe] | 395 | 8.9 | 21.9 | 18 | 2.5 | 160 | time-dependent inhibition of any of the isoforms [2]: None |
| CC(=N)NCCCC[C@H](N)C(=O)O [L-N^6-(1-Iminoethyl)lysine] |  |  |  |  |  |  | selectivity for iNOS over eNOS [4]: 30 fold; selectivity for iNOS over nNOS [4]: 13 fold |
| COC(=O)[C@H](Cc1ccccc1)NC(=O)[C@@H](N)CCCNC(=N)N[N+](=O)[O-] [compound 3, L-Arg^NO2 -L-Phe-OMe] | 400 | 3.2 | 28.6 | 14 | 8.9 | 45 |  |
| N=C(NCCC[C@H](N)C(=O)N[C@H](CC(N)=O)C(N)=O)N[N+](=O)[O-] [L-nitroArg-D-Asn] (HELM PEPTIDE1{[N=C(NCCC[C@H](N)C(=O)[*:2])N[N+](=O)[O-]].[dN].[am]}$$$$V2.0) |  |  |  |  |  |  | most potent inhibitors (based on isoform inhibition data) [2]: most potent |
| N=C(N)NN [Aminoguanidine] |  |  |  |  |  |  | selectivity for iNOS over eNOS [4]: 500 fold; selectivity for iNOS over nNOS [4]: 50 fold |
| C#CCNC(=N)NCCC[C@H](N)C(=O)O [propargyl, N^ω -propargyl-L-arginine, reference compound] |  |  |  |  |  |  | Ki [2]: 0.43 µM |
| CSC(N)=NCCC[C@H](N)C(=O)O [S-Methyl-L-thiocitrulline] |  |  |  |  |  |  | selectivity for nNOS than eNOS [4]: 10 fold |
| N=C(NCCC[C@@H](NC(=O)[C@H](N)CCCCN)C(N)=O)N[N+](=O)[O-] [D-Lys-D-nitroArg] (HELM PEPTIDE1{[dK].[N=C(NCCC[C@@H](N[*:1])C(=O)[*:2])N[N+](=O)[O-]].[am]}$$$$V2.0) |  |  |  |  |  |  | most potent inhibitors (based on isoform inhibition data) [2]: most potent |
| COC(=O)[C@H](CCCNC(=N)N[N+](=O)[O-])NC(=O)[C@H](N)Cc1ccccc1 [compound 11, D-Phe-L-Arg^NO2 -OMe] (HELM PEPTIDE1{[dF].[N=C(NCCC[C@H](N[*:1])C(=O)[*:2])N[N+](=O)[O-]].[CO[*:1]]}$$$$V2.0) | 8500 | 3 | 21.3 | 400 | 7.1 | 1200 |  |
| COC(=O)[C@@H](Cc1ccccc1)NC(=O)[C@H](N)CCCNC(=N)N[N+](=O)[O-] [compound 9, D-Arg^NO2 -D-Phe-OMe] | 375 | 43.3 | 2.5 | 150 | 0.058 | 6500 |  |
| N=C(NCCC[C@@H](NC(=O)[C@@H](N)Cc1cnc[nH]1)C(N)=O)N[N+](=O)[O-] [L-His-D-nitroArg] (HELM PEPTIDE1{H.[N=C(NCCC[C@@H](N[*:1])C(=O)[*:2])N[N+](=O)[O-]].[am]}$$$$V2.0) |  |  |  |  |  |  | most potent inhibitors (based on isoform inhibition data) [2]: most potent |
| COC(=O)[C@H](CCCNC(=N)N[N+](=O)[O-])NC(=O)[C@@H](N)Cc1ccccc1 [compound 4, L-Phe-L-Arg^NO2 -OMe] (HELM PEPTIDE1{F.[N=C(NCCC[C@H](N[*:1])C(=O)[*:2])N[N+](=O)[O-]].[CO[*:1]]}$$$$V2.0) | 1350 | 0.55 | 3.6 | 370 | 6.6 | 204 |  |
| N=C(NCCC[C@H](N)C(=O)N[C@@H](CN)C(=O)O)N[N+](=O)[O-] [L-nitroArg-L-Dpr, L-nitroArg-L-2,3-diaminopropanoic acid] (HELM PEPTIDE1{[N=C(NCCC[C@H](N)C(=O)[*:2])N[N+](=O)[O-]].[NC[C@H](N[*:1])C(=O)O]}$$$$V2.0) |  |  |  |  |  |  | most potent inhibitors (based on isoform inhibition data) [2]: most potent |

| Compound | Ki ([1]; Table 2, Dixon plots) [µM] | nNOS/iNOS selectivity [2] | nNOS/eNOS selectivity [2] | Ki [2, 5] [µM] | iNOS/eNOS selectivity [3] | Ki [3, 6] [µM] | other results |
| --- | --- | --- | --- | --- | --- | --- | --- |
| CNC(=N)NCCC[C@H](N)C(=O)O [methyl, N^ω -methyl-L-arginine, reference compound] |  |  |  |  |  |  | IC50 [2]: 10 µM |
| N=C(NCCC[C@@H](NC(=O)[C@H](N)Cc1ccccc1)C(=O)O)N[N+](=O)[O-] [compound 13, D-Phe-D-Arg^NO2] (HELM PEPTIDE1{[dF].[N=C(NCCC[C@@H](N[*:1])C(=O)O)N[N+](=O)[O-]]}$$$$V2.0) | 90 | 800 | 5.3 | 17 | 0.0066 | 13600 | selectivity of eNOS over iNOS [1]: 152 fold; time-dependent inhibition of any of the isoforms [2]: None |
| N=C(NCCC[C@@H](NC(=O)[C@@H](N)CCCCN)C(N)=O)N[N+](=O)[O-] [L-Lys-D-nitroArg] (HELM PEPTIDE1{K.[N=C(NCCC[C@@H](N[*:1])C(=O)[*:2])N[N+](=O)[O-]].[am]}$$$$V2.0) |  |  |  |  |  |  | most potent inhibitors (based on isoform inhibition data) [2]: most potent |
| COC(=O)[C@@H](CCCNC(=N)N[N+](=O)[O-])NC(=O)[C@@H](N)Cc1ccccc1 [compound 10, L-Phe-D-Arg^NO2 -OMe] (HELM PEPTIDE1{F.[N=C(NCCC[C@@H](N[*:1])C(=O)[*:2])N[N+](=O)[O-]].[CO[*:1]]}$$$$V2.0) | 150 | 83.3 | 1.7 | 90 | 0.02 | 7500 |  |
| N=C(NCCC[C@H](NC(=O)[C@@H](N)Cc1ccccc1)C(=O)O)N[N+](=O)[O-] [compound 2, L-Phe-L-Arg^NO2] (HELM PEPTIDE1{F.[N=C(NCCC[C@H](N[*:1])C(=O)O)N[N+](=O)[O-]]}$$$$V2.0) | 490 | 0.66 | 3.5 | 140 | 5.3 | 93 | time-dependent inhibition of any of the isoforms [2]: None |
| CCCNC(=N)NCCC[C@H](N)C(=O)O [propyl, N^ω -Propyl-L-arginine] |  |  |  |  |  |  | type of reversible inhibition of eNOS ([1]; Cornish-Bowden replots): competitive inhibitor; Ki ([1]; Table 1): 8.5 µM; Ki [2]: 0.057 µM; type of reversible inhibition of nNOS [2]: competitive inhibitor; Ki [3]: 180 µM; type of reversible inhibition of iNOS ([3]; Cornish-Bowden replots): competitive inhibitor |
| N=C(NCCC[C@H](N)C(=O)N[C@H](CCC(N)=O)C(N)=O)N[N+](=O)[O-] [L-nitroArg-D-Gln] (HELM PEPTIDE1{[N=C(NCCC[C@H](N)C(=O)[*:2])N[N+](=O)[O-]].[dQ].[am]}$$$$V2.0) |  |  |  |  |  |  | most potent inhibitors (based on isoform inhibition data) [2]: most potent |
| N=C(NCCC[C@H](N)C(=O)N[C@@H](CCN)C(=O)O)N[N+](=O)[O-] [L-nitroArg-L-Dbu, L-nitroArg-L-2,4-diaminobutanoic acid] (HELM PEPTIDE1{[N=C(NCCC[C@H](N)C(=O)[*:2])N[N+](=O)[O-]].[Dab]}$$$$V2.0) |  |  |  |  |  |  | most potent inhibitors (based on isoform inhibition data) [2]: most potent |
| COC(=O)[C@H](Cc1ccccc1)NC(=O)[C@H](N)CCCNC(=N)N[N+](=O)[O-] [compound 8, D-Arg^NO2 -L-Phe-OMe] | 1400 | 22.1 | 4.8 | 290 | 0.22 | 6400 |  |
| COC(=O)[C@@H](Cc1ccccc1)NC(=O)[C@@H](N)CCCNC(=N)N[N+](=O)[O-] [compound 7, L-Arg^NO2 -D-Phe-OMe] | 525 | 1.1 | 5.7 | 92 | 5.3 | 100 |  |
| N=C(NCCC[C@@H](NC(=O)[C@H](N)CCCN)C(N)=O)N[N+](=O)[O-] [D-Orn-D-nitroArg] (HELM PEPTIDE1{[NCCC[C@@H](N)C(=O)[*:2]].[N=C(NCCC[C@@H](N[*:1])C(=O)[*:2])N[N+](=O)[O-]].[am]}$$$$V2.0) |  |  |  |  |  |  | most potent inhibitors (based on isoform inhibition data) [2]: most potent |
| NC(=NCCC[C@H](N)C(=O)O)N[N+](=O)[O-] [N-nitro-L-arginine, N^ω --Nitro-L-arginine, reference compound] |  |  |  |  |  |  | selectivity for nNOS over iNOS [4]: about 300 fold; Ki ([2]; read-out: KI (time-dependent inhibition), with nNOS): 9.3 µM; kinact ([2]; with nNOS): 0.132 min⁻¹ |
| COC(=O)[C@@H](CCCN=C(N)N[N+](=O)[O-])NC(=O)[C@H](N)Cc1ccccc1 [compound 12, D-Phe-D-Arg^NO2 -OMe] (HELM PEPTIDE1{[dF].[N=C(NCCC[C@@H](N[*:1])C(=O)[*:2])N[N+](=O)[O-]].[CO[*:1]]}$$$$V2.0) | 5 |  | 2.5 | 2 | 0.0014 | 3600 | selectivity of eNOS over iNOS [1]: 714 fold; time-dependent inhibition of any of the isoforms [2]: None |
| CCSC(N)=NCCC[C@H](N)C(=O)O [S-ethyl-L-thiocitrulline] |  |  |  |  |  |  | selectivity for nNOS than eNOS [4]: 50 fold |
| CC1CCN=C(N)S1 (stereo not drawn) [2-Amino-5,6-dihydro-6-methyl-4H-1,3-thiazine] |  |  |  |  |  |  | selectivity in favor of iNOS [4]: 10-40 fold |
| CCSC(=N)N [S-ethylisothiourea] |  |  |  |  |  |  | selectivity in favor of iNOS [4]: 10-40 fold |
